No end group written: not given here.
Molecular target: T1, human TAS1R2-K689Q/TAS1R3-WT (Homo sapiens, UniProt Q7RTX0+Q8TE23, K689Q)
T1 construct: expressed in transfected cells; host or cells: HEK293T-Gα16gust44
T1 sequence (Q8TE23 20-839 K689Q): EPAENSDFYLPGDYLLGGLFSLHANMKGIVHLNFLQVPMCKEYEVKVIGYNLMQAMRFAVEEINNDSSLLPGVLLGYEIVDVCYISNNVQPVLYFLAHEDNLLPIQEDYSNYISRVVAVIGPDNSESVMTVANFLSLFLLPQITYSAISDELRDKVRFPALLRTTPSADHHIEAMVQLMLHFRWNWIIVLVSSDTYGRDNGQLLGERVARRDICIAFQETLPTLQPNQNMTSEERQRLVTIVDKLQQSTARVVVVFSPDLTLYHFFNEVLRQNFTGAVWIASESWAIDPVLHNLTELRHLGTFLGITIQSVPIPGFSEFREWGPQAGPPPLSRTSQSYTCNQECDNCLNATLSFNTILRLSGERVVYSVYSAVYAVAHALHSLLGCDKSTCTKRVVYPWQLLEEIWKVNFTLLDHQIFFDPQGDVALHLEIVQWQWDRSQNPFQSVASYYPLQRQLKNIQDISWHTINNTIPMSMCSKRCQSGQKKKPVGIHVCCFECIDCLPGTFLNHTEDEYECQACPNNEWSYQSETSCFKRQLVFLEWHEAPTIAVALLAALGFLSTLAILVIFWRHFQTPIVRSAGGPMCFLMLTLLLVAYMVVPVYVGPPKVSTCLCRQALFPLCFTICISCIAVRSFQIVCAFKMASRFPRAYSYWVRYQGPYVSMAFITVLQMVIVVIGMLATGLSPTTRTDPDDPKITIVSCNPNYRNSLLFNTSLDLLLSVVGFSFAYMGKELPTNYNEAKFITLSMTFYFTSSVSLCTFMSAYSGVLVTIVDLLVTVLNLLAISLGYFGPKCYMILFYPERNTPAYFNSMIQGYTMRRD
T1 sequence (Q7RTX0 21-852): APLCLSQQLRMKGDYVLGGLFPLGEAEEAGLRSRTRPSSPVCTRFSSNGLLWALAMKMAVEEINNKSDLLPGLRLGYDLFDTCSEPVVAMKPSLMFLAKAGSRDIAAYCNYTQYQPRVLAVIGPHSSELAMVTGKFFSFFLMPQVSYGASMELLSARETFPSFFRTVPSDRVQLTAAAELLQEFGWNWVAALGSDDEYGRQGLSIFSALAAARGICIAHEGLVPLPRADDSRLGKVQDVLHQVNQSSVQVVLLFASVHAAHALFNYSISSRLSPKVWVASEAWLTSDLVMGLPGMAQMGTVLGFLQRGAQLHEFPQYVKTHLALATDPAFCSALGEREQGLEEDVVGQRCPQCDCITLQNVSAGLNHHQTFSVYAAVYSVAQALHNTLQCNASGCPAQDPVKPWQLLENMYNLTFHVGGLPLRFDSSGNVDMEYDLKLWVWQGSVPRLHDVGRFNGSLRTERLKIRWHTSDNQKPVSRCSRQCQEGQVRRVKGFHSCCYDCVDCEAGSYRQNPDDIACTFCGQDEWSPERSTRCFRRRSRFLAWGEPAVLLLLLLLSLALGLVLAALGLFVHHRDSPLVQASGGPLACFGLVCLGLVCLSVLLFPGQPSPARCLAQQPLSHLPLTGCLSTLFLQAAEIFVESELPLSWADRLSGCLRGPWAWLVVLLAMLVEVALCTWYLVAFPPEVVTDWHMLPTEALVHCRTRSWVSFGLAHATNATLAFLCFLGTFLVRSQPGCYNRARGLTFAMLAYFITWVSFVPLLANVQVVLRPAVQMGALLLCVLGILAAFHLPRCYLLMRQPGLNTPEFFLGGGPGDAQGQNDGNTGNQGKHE
Test: Calcium mobilisation assay, TAS1R2 variant K689Q with TAS1R3-WT
Format: cell-based
Details: "-": no activation; for EC50: "nd": not determined; for Max ΔF/F0: maximal signal amplitude
Source text: The coding sequences for TAS1R2 and TAS1R3 were commercially synthesised, and the human codon was optimised for expression in human cells. The coding sequences of human TAS1R2 and TAS1R3 were subcloned and inserted into the mammalian expression vectors pcDNA6/myc-HisA and pcDNA4/myc-HisA (Invitrogen; Thermo Fisher Scientific; Illkirch, France) between the EcoRI and NotI restriction sites, generating the plasmids pcDNA6-TAS1R2 and pcDNA4-TAS1R3, respectively. To increase protein expression in mammalian cells, an upstream start codon was used, which was a sequence called MAX, corresponding to the QBI SP163 element also described in pcDNA4-HisMax (Invitrogen; Thermo Fisher Scientific; Illkirch, France). To measure the expression level of the receptor by immunohistochemistry, we used the FLAG sequence ([…]) in the C-terminal position, which encodes the FLAG tag epitope. SNP variants of TAS1R2 and TAS1R3 were constructed based on […], respectively, using site-directed mutagenesis (Genewiz; Leipzig, Germany).
The HEK293T cells were kindly provided by Jay P. Slack (Givaudan Flavors Corporation; Cincinnati, OH, USA). HEK293T cells stably transfected with Gα16gust44 [43, 67] were seeded in poly-D-lysine-coated clear-bottom black 96-well plates (0.35 × 10^5 cells/well) in high-glucose DMEM supplemented with 2 mM GlutaMAX, 10% dialysed foetal bovine serum with penicillin/streptomycin and G418 (400 μg/mL) at 37 °C and 6.3% CO2 in a humidified atmosphere as previously reported. […] As a negative control, HEK293T cells were mock-transfected with the empty expression vector. After a further 24 h of incubation, the HEK293T cells were washed with C1 buffer (130 mM NaCl, 5 mM KCl, 10 mM HEPES pH 7.4 and 2 mM CaCl2). The 96-well plates containing the cells were then stimulated with sweet-tasting compounds. […] Different concentration ranges were tested depending on the sweet compound injected. The Ca^2+ changes were expressed as fractional changes in fluorescent light intensity: ΔF/F = (F − F0)/F0, where F was the fluorescent light intensity at each point, and F0 was the value of emitted fluorescent light prior to stimulus application. To calculate dose–response relationships, the changes in fluorescence upon stimulus application were averaged, mock-subtracted and baseline-corrected. The dose–response data obtained were adjusted using a 4-parameter logistic equation. The half-maximal effective concentrations (EC50 values) and maximal signal amplitudes were calculated using SigmaPlot software (version 15.0) (Systat Software; San Jose, CA, USA).
For in vitro calcium mobilisation assay performed on hTAS1R2-SNPs, hTAS1R3-SNPs and mTAS1R3-I60T, 6 to 7 concentrations were tested for each sweet compound, plus buffer alone. All concentration–receptor combinations were measured in duplicate, and each experiment was repeated at least 4 times (8 wells/concentration). Results were expressed for each concentration as ΔF/F mean ± SEM and represented as dose–response curves.

**Q.** `OC[C@H]1O[C@H](O[C@]2(CCl)O[C@H](CCl)[C@@H](O)[C@@H]2O)[C@H](O)[C@@H](O)[C@H]1Cl` [Sucralose] was tested. Which “R1 = Variant EC50/WT EC50” value did it give?
**A.** 3.4

**Q.** And the EC50?
**A.** 307 µM

**Q.** What about the “Max ΔF/F0” value of the same molecule?
**A.** 0.08 ± 0.01

**Q.** With `C[C@H](CC[C@@H](O[C@@H]1O[C@H](CO[C@@H]2O[C@H](CO)[C@@H](O)[C@H](O)[C@H]2O)[C@@H](O)[C@H](O)[C@H]1O[C@@H]1O[C@H](CO)[C@@H](O)[C@H](O)[C@H]1O)C(C)(C)O)[C@H]1CC[C@@]2(C)[C@@H]3CC=C4[C@@H](CC[C@H](O[C@@H]5O[C@H](CO[C@@H]6O[C@H](CO)[C@@H](O)[C@H](O)[C@H]6O)[C@@H](O)[C@H](O)[C@H]5O)C4(C)C)[C@]3(C)[C@H](O)C[C@]12C` [Mogroside V, mogroside V] as the molecule, how does the “R1 = Variant EC50/WT EC50” value read?
**A.** 3.3

**Q.** And the EC50?
**A.** 57.9 ± 0.4 µM

**Q.** What about the “Max ΔF/F0” value of the same molecule?
**A.** 0.54 ± 0.01

**Q.** What does the source list for `COC(=O)[C@H](Cc1ccccc1)NC(=O)[C@H](CC(=O)O)NCCC(C)(C)C` [Neotame]?
**A.** R1 = Variant EC50/WT EC50: 4.3; EC50: 3.58 ± 0.46 µM; Max ΔF/F0: 0.12 ± 0.01

**Q.** What does the source list for “brazzein (QDKCKKVYENYPVSKCQLANQCNYDCKLDKHARSGECFYDEKRNLQCICDYCEY; ends and bridges not checked; cysteine pairing not given here; UniProt P56552 1-54, looked up) [sweet-tasting protein obtained by recombinant production using the yeast Pichia pastoris]”?
**A.** R1 = Variant EC50/WT EC50: 5.7; Max ΔF/F0: 0.64 ± 0.03

**Q.** Which “R1 = Variant EC50/WT EC50” value does the source give for `C=C(C)[C@@H]1CC=C(/C=N/O)CC1` [Perillartine, perillartine] here?
**A.** 7.6

**Q.** What about the EC50 of the same molecule?
**A.** 132 ± 16.9 µM

**Q.** And the “Max ΔF/F0” value?
**A.** 1.36 ± 0.01

**Q.** Which results are given for `CC1=CC(=O)NS(=O)(=O)O1` [Acesulfame K, acesulfame K]?
**A.** R1 = Variant EC50/WT EC50: 4.3; Max ΔF/F0: 0.02

**Q.** `C=C1C[C@@]23CC[C@H]4[C@@](C)(CCC[C@@]4(C)C(=O)O[C@@H]4O[C@H](CO)[C@@H](O)[C@H](O[C@@H]5O[C@H](CO)[C@@H](O)[C@H](O)[C@H]5O)[C@H]4O[C@@H]4O[C@H](CO)[C@@H](O)[C@H](O)[C@H]4O)[C@@H]2CC[C@]1(O[C@@H]1O[C@H](CO)[C@@H](O)[C@H](O[C@@H]2O[C@H](CO)[C@@H](O)[C@H](O)[C@H]2O)[C@H]1O[C@@H]1O[C@H](CO)[C@@H](O)[C@H](O)[C@H]1O)C3` [Rebaudioside M, rebaudioside M] was tested. Which “R1 = Variant EC50/WT EC50” value did it give?
**A.** 4.5

**Q.** What about the EC50 of the same molecule?
**A.** 75.8 ± 2.3 µM

**Q.** And the “Max ΔF/F0” value?
**A.** 0.36 ± 0.01

**Q.** With `O=S(=O)(O)NC1CCCCC1` [Cyclamate, cyclamate] as the molecule, how does the EC50 read?
**A.** 5010 ± 220 µM

**Q.** For `COc1ccc(CCC(=O)c2c(O)cc(O[C@@H]3O[C@H](CO)[C@@H](O)[C@H](O)[C@H]3O[C@@H]3O[C@@H](C)[C@H](O)[C@@H](O)[C@H]3O)cc2O)cc1O` [NHDC, neohesperidin dihydrochalcone], which EC50 is on record?
**A.** > 1000 µM

**Q.** How did the “R1 = Variant EC50/WT EC50” value turn out when thaumatin was run?
**A.** 4.4

**Q.** And the “Max ΔF/F0” value?
**A.** 0.87 ± 0.09

B1: thaumatin (protein)
chain: ATFEIVNRCSYTVWAAASKGDAALDAGGRQLNSGESWTINVEPGTKGGKIWARTDCYFDDSGSGICKTGDCGGLLRCKRFGRPPTTLAEFSLNQYGKDYIDISNIKGFNVPMDFSPTTRGCRGVRCAADIVGQCPAKLKAPGGGCNDACTVFQTSEYCCTTGKCGPTEYSRFFKRLCPDAFSYVLDKPTTVTCPGSSNYRVTFCPTA
modifications: Eight disulfides
notes: sweet-tasting plant protein, E957
**Q.** Which EC50 does the source give for B1 here?
**A.** 33.5 µM

Source: article PMC11945486, “TAS1R2/TAS1R3 Single-Nucleotide Polymorphisms Affect Sweet Taste Receptor Activation by Sweeteners: The SWEET Project” (Nutrients, 2025)
